Assay results from patent US20250129062A1, “AMORPHOUS SUBSTANCES, CRYSTALS, PHARMACEUTICAL COMPOSITIONS, PREPARATION METHODS AND USES OF THIOHYDANTOIN COMPOUND OR PHARMACEUTICALLY ACCEPTABLE SALT THEREOF” (SUZHOU KINTOR PHARMACEUTICALS, INC., priority 2021, published 2025).
In brackets after ≈: the same amount, converted by molar mass. Where two headings read alike, the source gives them in different places.

Assay: Solubility of amorphous substance in solvent systems (supersaturated solution, oscillated 24 h at room temperature, HPLC)
Format: physicochemical
Conditions: for solubility at 24 h: thermodynamic from solid
Description: The amorphous substance of the compound of formula I was prepared into supersaturated solutions with different solvents, and oscillated under a room temperature condition (a constant temperature). After oscillating for 24 h, sampling was performed, and the content of the sample was detected by HPLC under condition 1.
Condition 1: • Chromatographic column: C18 (150 mm×4.6 mm×3.5 μm); • Mobile phase: binary mobile phase system, mobile phase A was 0.1% formic acid in water, mobile phase B was acetonitrile; • Elution time: 68 min; • Elution mode: gradient elution (in the gradient elution process, mobile phase A had the maximum volume percentage of 95% and the minimum volume percentage of 10%); • Detection wavelength: 270 nm.

Cc1ncsc1-c1ccc(CNC(=O)[C@@H]2C[C@@H](O)CN2C(=O)[C@@H](NC(=O)COCCCCOc2ccc(-c3ccc(N4C(=S)N(c5ccc(C#N)c(C(F)(F)F)c5F)C(=O)C4(C)C)cn3)cc2)C(C)(C)C)cc1
solubility at 24 h (dehydrated alcohol-propylene glycol-water solvent mixture, aqueous with cosolvent or surfactant or cyclodextrin, Dehydrated alcohol 35%-propylene glycol 35%-water 30% (w/w), read-out: Solubility): 52300 µg/mL (≈ 50.1 mM) | solubility at 24 h (dehydrated alcohol-propylene glycol-water solvent mixture, aqueous with cosolvent or surfactant or cyclodextrin, Dehydrated alcohol 35%-propylene glycol 40%-water 25% (w/w), read-out: Solubility): 62700 µg/mL (≈ 60.1 mM) | solubility at 24 h (dehydrated alcohol-propylene glycol-water solvent mixture, aqueous with cosolvent or surfactant or cyclodextrin, Dehydrated alcohol 35%-propylene glycol 50%-water 15% (w/w), read-out: Solubility): > 189000 µg/mL | solubility at 24 h (dehydrated alcohol-propylene glycol-water solvent mixture, aqueous with cosolvent or surfactant or cyclodextrin, Dehydrated alcohol 40%-propylene glycol 10%-water 50% (w/w), read-out: Solubility): 3020 µg/mL (≈ 2.89 mM) | solubility at 24 h (dehydrated alcohol-propylene glycol-water solvent mixture, aqueous with cosolvent or surfactant or cyclodextrin, Dehydrated alcohol 40%-propylene glycol 20%-water 40% (w/w), read-out: Solubility): 19500 µg/mL (≈ 18.7 mM) | solubility at 24 h (dehydrated alcohol-propylene glycol-water solvent mixture, aqueous with cosolvent or surfactant or cyclodextrin, Dehydrated alcohol 40%-propylene glycol 30%-water 30% (w/w), read-out: Solubility): 49800 µg/mL (≈ 47.7 mM) | solubility at 24 h (dehydrated alcohol-propylene glycol-water solvent mixture, aqueous with cosolvent or surfactant or cyclodextrin, Dehydrated alcohol 40%-propylene glycol 40%-water 20% (w/w), read-out: Solubility): > 97600 µg/mL | solubility at 24 h (dehydrated alcohol-propylene glycol-water solvent mixture, aqueous with cosolvent or surfactant or cyclodextrin, Dehydrated alcohol 50%-propylene glycol 10%-water 40% (w/w), read-out: Solubility): 77700 µg/mL (≈ 74.5 mM) | solubility at 24 h (dehydrated alcohol-propylene glycol-water solvent mixture, aqueous with cosolvent or surfactant or cyclodextrin, Dehydrated alcohol 50%-propylene glycol 20%-water 30% (w/w), read-out: Solubility): > 77500 µg/mL | solubility at 24 h (dehydrated alcohol-propylene glycol-water solvent mixture, aqueous with cosolvent or surfactant or cyclodextrin, Dehydrated alcohol 50%-propylene glycol 30%-water 20% (w/w), read-out: Solubility): > 69300 µg/mL | solubility at 24 h (dehydrated alcohol-propylene glycol-water solvent mixture, aqueous with cosolvent or surfactant or cyclodextrin, Dehydrated alcohol 50%-propylene glycol 40%-water 10% (w/w), read-out: Solubility): > 67800 µg/mL | solubility at 24 h (dehydrated alcohol-propylene glycol-water solvent mixture, organic solvent or mixture, Dehydrated alcohol 50%-propylene glycol 50%-water 00% (w/w), read-out: Solubility): > 96000 µg/mL | solubility at 24 h (glycerin, organic solvent or mixture, solvent: Glycerin, read-out: 24 h solubility): 440 µg/mL (≈ 0.422 mM) | solubility at 24 h (liquid paraffin, oil or lipid, solvent: Liquid paraffin, read-out: 24 h solubility): 10 µg/mL (≈ 0.00959 mM) | solubility at 24 h (oleic acid, oil or lipid, solvent: Oleic acid, read-out: 24 h solubility): 1410 µg/mL (≈ 1.35 mM) | solubility at 24 h (polyethylene glycol 400 (PEG400), organic solvent or mixture, solvent: Polyethylene glycol 400 (PEG400), read-out: 24 h solubility): 16000 µg/mL (≈ 15.4 mM) | solubility at 24 h (propylene glycol, organic solvent or mixture, solvent: Propylene glycol, read-out: 24 h solubility): 12000 µg/mL (≈ 11.5 mM) | solubility at 24 h (solvent mixture, aqueous with cosolvent or surfactant or cyclodextrin, Dehydrated alcohol 10%-PEG400 30%-water 60% (w/w), read-out: Solubility): 60 µg/mL (≈ 0.0575 mM) | solubility at 24 h (solvent mixture, aqueous with cosolvent or surfactant or cyclodextrin, Dehydrated alcohol 10%-PEG400 40%-water 50% (w/w), read-out: Solubility): 280 µg/mL (≈ 0.268 mM) | solubility at 24 h (solvent mixture, aqueous with cosolvent or surfactant or cyclodextrin, Dehydrated alcohol 10%-glycerin 10%-water 80% (w/w), read-out: Solubility): < 100 µg/mL | solubility at 24 h (solvent mixture, aqueous with cosolvent or surfactant or cyclodextrin, Dehydrated alcohol 10%-glycerin 20%-water 70% (w/w), read-out: Solubility): < 100 µg/mL | solubility at 24 h (solvent mixture, aqueous with cosolvent or surfactant or cyclodextrin, Dehydrated alcohol 10%-glycerin 30%-water 60% (w/w), read-out: Solubility): < 100 µg/mL | solubility at 24 h (solvent mixture, aqueous with cosolvent or surfactant or cyclodextrin, Dehydrated alcohol 20%-glycerin 10%-water 70% (w/w), read-out: Solubility): < 100 µg/mL | solubility at 24 h (solvent mixture, aqueous with cosolvent or surfactant or cyclodextrin, Dehydrated alcohol 20%-glycerin 20%-water 60% (w/w), read-out: Solubility): < 100 µg/mL | solubility at 24 h (solvent mixture, aqueous with cosolvent or surfactant or cyclodextrin, Dehydrated alcohol 20%-glycerin 30%-water 50% (w/w), read-out: Solubility): < 100 µg/mL | solubility at 24 h (solvent mixture, aqueous with cosolvent or surfactant or cyclodextrin, Dehydrated alcohol 20%-glycerin 40%-water 40% (w/w), read-out: Solubility): < 100 µg/mL | solubility at 24 h (solvent mixture, aqueous with cosolvent or surfactant or cyclodextrin, Dehydrated alcohol 20%-glycerin 50%-water 30% (w/w), read-out: Solubility): < 100 µg/mL | solubility at 24 h (solvent mixture, aqueous with cosolvent or surfactant or cyclodextrin, Dehydrated alcohol 30%-glycerin 10%-water 60% (w/w), read-out: Solubility): 80 µg/mL (≈ 0.0767 mM) | solubility at 24 h (solvent mixture, aqueous with cosolvent or surfactant or cyclodextrin, Dehydrated alcohol 30%-glycerin 20%-water 50% (w/w), read-out: Solubility): 140 µg/mL (≈ 0.134 mM) | solubility at 24 h (solvent mixture, aqueous with cosolvent or surfactant or cyclodextrin, Dehydrated alcohol 30%-glycerin 30%-water 40% (w/w), read-out: Solubility): 650 µg/mL (≈ 0.623 mM) | solubility at 24 h (solvent mixture, aqueous with cosolvent or surfactant or cyclodextrin, Dehydrated alcohol 30%-glycerin 40%-water 30% (w/w), read-out: Solubility): 2260 µg/mL (≈ 2.17 mM) | solubility at 24 h (solvent mixture, aqueous with cosolvent or surfactant or cyclodextrin, Dehydrated alcohol 30%-glycerin 50%-water 20% (w/w), read-out: Solubility): 4080 µg/mL (≈ 3.91 mM) | solubility at 24 h (solvent mixture, aqueous with cosolvent or surfactant or cyclodextrin, Dehydrated alcohol 40%-glycerin 10%-water 50% (w/w), read-out: Solubility): 1580 µg/mL (≈ 1.51 mM) | solubility at 24 h (solvent mixture, aqueous with cosolvent or surfactant or cyclodextrin, Dehydrated alcohol 40%-glycerin 20%-water 40% (w/w), read-out: Solubility): 3400 µg/mL (≈ 3.26 mM) | solubility at 24 h (solvent mixture, aqueous with cosolvent or surfactant or cyclodextrin, Dehydrated alcohol 40%-glycerin 30%-water 30% (w/w), read-out: Solubility): 8840 µg/mL (≈ 8.47 mM) | solubility at 24 h (solvent mixture, aqueous with cosolvent or surfactant or cyclodextrin, Dehydrated alcohol 40%-glycerin 40%-water 20% (w/w), read-out: Solubility): 14700 µg/mL (≈ 14.1 mM) | solubility at 24 h (solvent mixture, aqueous with cosolvent or surfactant or cyclodextrin, Dehydrated alcohol 40%-glycerin 50%-water 10% (w/w), read-out: Solubility): 40000 µg/mL (≈ 38.4 mM) | solubility at 24 h (solvent mixture, aqueous with cosolvent or surfactant or cyclodextrin, Dehydrated alcohol 50%-PEG400 10%-water 40% (w/w), read-out: Solubility): 25100 µg/mL (≈ 24.1 mM) | solubility at 24 h (solvent mixture, aqueous with cosolvent or surfactant or cyclodextrin, Dehydrated alcohol 50%-PEG400 20%-water 30% (w/w), read-out: Solubility): > 51500 µg/mL | solubility at 24 h (solvent mixture, aqueous with cosolvent or surfactant or cyclodextrin, Dehydrated alcohol 50%-glycerin 10%-water 40% (w/w), read-out: Solubility): 15200 µg/mL (≈ 14.5 mM) | solubility at 24 h (solvent mixture, aqueous with cosolvent or surfactant or cyclodextrin, Dehydrated alcohol 50%-glycerin 20%-water 30% (w/w), read-out: Solubility): 23900 µg/mL (≈ 22.9 mM) | solubility at 24 h (solvent mixture, aqueous with cosolvent or surfactant or cyclodextrin, Dehydrated alcohol 50%-glycerin 30%-water 20% (w/w), read-out: Solubility): > 43600 µg/mL | solubility at 24 h (solvent mixture, aqueous with cosolvent or surfactant or cyclodextrin, Dehydrated alcohol 50%-glycerin 40%-water 10% (w/w), read-out: Solubility): > 64600 µg/mL | solubility at 24 h (solvent mixture, organic solvent or mixture, Dehydrated alcohol 50%-glycerin 50%-water 00% (w/w), read-out: Solubility): > 74100 µg/mL | 24 h solubility (solvent: Dehydrated alcohol): >54480 µg/mL | 24 h solubility (solvent: Liquid paraffin, listed as amorphous substance of the compound of formula I): extremely low | 24 h solubility (solvent: Water, listed as amorphous substance of the compound of formula I): basically insoluble
